Legend:
[1] = HAP crystallisation induction period (synergy with other treatments); assay type: physicochemical; conditions: drug effect simulated by modifying calcium and phosphate concentrations; control 8 minutes
Protocol: Experimental: hydroxyapatite (HAP) was crystallised by mixing appropriate concentrations of calcium and phosphate at pH 7.4. The effect of cinacalcet and sevelamer was simulated by suitably modifying the calcium and phosphate concentrations. The induction period (time required for HAP to begin to crystallise) was recorded as the analytical signal.

[2] = test system: vit D-induced cardiovascular calcification in rats; test: Inhibition of vit D-induced (300,000 IU/kg x 3) cardiovascular calcification by s.c. IP6; assay type: in vivo, male SD rats; conditions: s.c.
Protocol: Experimental: male SD rats were divided into 9 groups. Two of said groups (sham and control groups) received s.c. saline 2 ml/kg; 6 groups received s.c. […] One group was treated with a s.c. Alzet pump loaded with 200 mg/ml IP6. Calcification was induced by oral administration of 300,000 IU/kg vitamin D (2 ml/kg) for 3 days starting on treatment day 3. […] The calcium content in heart, aorta and kidneys was determined after treatment for 7 days.

| SMILES | induction time (without IP6) [1] [min] | dose causing the same effect as 10 mg/kg IP6 [2] [mg/kg] | efficacy against calcification (in words) ([2]; at higher doses than IP6) |
| --- | --- | --- | --- |
| C[C@@H](NCCCc1cccc(C(F)(F)F)c1)c1cccc2ccccc12 [cinacalcet, reference compound] | 14 |  |  |
| O=P([O-])([O-])OP(=O)([O-])[O-].[Na+].[Na+].[Na+].[Na+] [pyrophosphate, sodium pyrophosphate, reference compound] |  | 28 | good efficacy |
